# Source: ChEMBL document CHEMBL1201862, “PubChem BioAssay data set” (2004)
# Calls of active or inactive are those of the source.
# Columns and labels:
# Beta-galactosidase = Beta-galactosidase (Escherichia coli, UniProt Q8VNN2); assay: PubChem AID 485352; type: functional
# [1] = target: T1, Type-1 angiotensin II receptor (Homo sapiens, UniProt P30556); assay: antagonism of angiotensin II type 1 receptor – cell-based, uHTS hits, selectivity assay for APJ receptor antagonist project, dose response (AID 463214); type: functional;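 also: antagonist potency against angiotensin II stimulated AT1 response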
# T1 sequence (P30556 whole entry): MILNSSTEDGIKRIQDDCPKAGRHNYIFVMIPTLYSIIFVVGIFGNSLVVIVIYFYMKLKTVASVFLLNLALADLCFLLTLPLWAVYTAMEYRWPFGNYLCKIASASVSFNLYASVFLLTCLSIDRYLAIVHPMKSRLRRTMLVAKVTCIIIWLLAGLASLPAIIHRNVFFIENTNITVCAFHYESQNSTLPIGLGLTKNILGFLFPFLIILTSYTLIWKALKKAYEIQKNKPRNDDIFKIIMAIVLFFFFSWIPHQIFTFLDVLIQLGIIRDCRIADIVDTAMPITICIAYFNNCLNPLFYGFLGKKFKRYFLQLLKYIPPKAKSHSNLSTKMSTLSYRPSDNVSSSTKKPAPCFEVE
# HEK293 [2] = assay: cells; type: functional, cell-based; conditions: Homo sapiens
# [3] = target: T2, Nuclear receptor subfamily 0 group B member 1 (Homo sapiens, UniProt P51843); assay: Luminescence-based cell-based high throughput dose response assay for inhibitors of the orphan nuclear receptor subfamily 0, group B, member 1 (DAX1; NR0B1). [Related pubchem assays (depositor defined):AID504766, AID504790]; type: functional
# T2 sequence (P51843 whole entry): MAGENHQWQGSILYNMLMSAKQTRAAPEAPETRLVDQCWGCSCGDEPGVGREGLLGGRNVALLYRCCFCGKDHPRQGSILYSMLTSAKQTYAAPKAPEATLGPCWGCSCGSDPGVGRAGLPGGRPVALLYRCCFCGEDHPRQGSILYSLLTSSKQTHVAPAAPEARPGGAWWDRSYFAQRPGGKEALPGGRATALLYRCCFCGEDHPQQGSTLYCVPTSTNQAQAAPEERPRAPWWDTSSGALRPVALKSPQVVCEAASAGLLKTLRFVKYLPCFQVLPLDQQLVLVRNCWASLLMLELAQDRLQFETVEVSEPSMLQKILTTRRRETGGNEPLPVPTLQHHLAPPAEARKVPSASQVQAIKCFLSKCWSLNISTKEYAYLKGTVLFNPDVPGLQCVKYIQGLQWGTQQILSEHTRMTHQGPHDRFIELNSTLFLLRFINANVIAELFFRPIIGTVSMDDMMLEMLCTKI
# [4] = Luminescence Cell-Based Dose Confirmation HTS to Identify Activators of 5'UTR Stem-Loop Driven Alpha-Synuclein mRNA Translation in H4 Neuroglioblastoma Cells. [Related pubchem assays: 1829 (Project Summary), 1814 (Primary HTS)]; type: functional
# [5] = Luminescence Cell-Based Dose Response HTS to Identify Activators of Luciferase Translation or Activity in H4 […] Cells. [Related pubchem assays: 1829 (Project Summary), 1814 (Primary HTS)]; type: functional
# H4 = assay: Luminescence Cell-Based Dose Response HTS to Identify Activators of 5'UTR Stem-Loop Driven Prion Protein mRNA Translation in H4 Neuroglioblastoma Cells. [Related pubchem assays: 1829 (Project Summary), 1814 (Primary HTS)]; type: functional; conditions: Homo sapiens
# HEK293 [6] = assay: EBV LMP1 TES2 canonical NF-kB signalling blockers – cell-based, HEK293, luciferase, cherry-pick, dose response (AID 588343); type: functional; conditions: Homo sapiens
# Vero [7] = assay: cells; type: functional, cell-based; conditions: Chlorocebus sabaeus
# Vero [8] = assay: cells; type: functional; conditions: Chlorocebus sabaeus
# [9] = reduction of Shn3 3'UTR-driven luciferase in osteoblasts – cell-based, Clone20 osteoblasts, firefly luciferase, cherry-picked, dose response (AID 624132); type: functional;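 also: firefly luciferase luminescence from reporter carrying the Shn3 3'UTR in osteoblasts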
# [10] = loss of viability in HepG2 cells – cell-based, CellTiter-Glo, cherry-picked, cytotoxicity control for Shn3 inhibitor project, dose response (AID 624134); type: functional
# [11] = non-specific 3'UTR reporter inhibition in Clone20-Shn3RL – cell-based, Renilla luciferase, cherry-picked, counter-screen for Shn3 inhibitor project, dose response (AID 624133); type: functional
# [12] = target: T3, Heat shock factor protein 1 (Mus musculus, UniProt P38532); assay: decrease of HSF1-responsive luciferase luminescence – cell-based, NIH3T3, dose retest, confirmation (AID 2382); type: functional;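 also: NIH3T3 fibroblasts with HSF1-driven luciferase reporter stressed by proteasome inhibitor MG132; luminescence from HSF1-driven luciferase expression after 8 hours of MG132 stress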
# T3 sequence (P38532 whole entry): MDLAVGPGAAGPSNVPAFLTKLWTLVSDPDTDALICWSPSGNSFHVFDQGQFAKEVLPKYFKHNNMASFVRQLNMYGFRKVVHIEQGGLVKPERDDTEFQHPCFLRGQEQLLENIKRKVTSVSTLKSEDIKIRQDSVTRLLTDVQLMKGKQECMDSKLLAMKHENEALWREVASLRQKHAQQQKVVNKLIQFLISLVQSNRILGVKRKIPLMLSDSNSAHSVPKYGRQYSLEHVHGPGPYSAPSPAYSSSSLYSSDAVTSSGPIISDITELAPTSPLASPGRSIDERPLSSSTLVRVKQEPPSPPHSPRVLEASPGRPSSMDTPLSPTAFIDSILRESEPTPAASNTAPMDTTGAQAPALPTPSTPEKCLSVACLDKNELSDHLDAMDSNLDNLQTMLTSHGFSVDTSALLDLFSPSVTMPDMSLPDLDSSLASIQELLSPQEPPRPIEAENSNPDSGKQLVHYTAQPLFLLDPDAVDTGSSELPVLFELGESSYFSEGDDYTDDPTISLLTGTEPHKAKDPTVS
# [13] = microbe, parasite or virus in culture; type: functional; conditions: Mycobacterium tuberculosis
# Jurkat = assay: blockers of NF-kB activation in T cells – Jurkat, luciferase reporter, luminescence, B- and T-cell, dose response (AID 489004); type: functional, cell-based; conditions: Homo sapiens;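 also: NF-kB luciferase reporter Jurkat cells stimulated with PMA plus ionomycin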
# [14] = HEK-293T viability loss, compound-treated – cell-based, uHTS hits, cytotoxicity control for B/T-cell NF-kB inhibitor project, dose response (AID 489019); type: functional;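 also: IC50 reflects cytotoxicity as loss of cell viability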
# [15] = target: T4, Replicative DNA helicase DnaB (Mycobacterium tuberculosis, UniProt P9WMR3); assay: DnaB intein splicing inhibitors, dose response, biochemical, cell-free fluorescence (AID 449749); type: functional
# T4 sequence (P9WMR3 whole entry): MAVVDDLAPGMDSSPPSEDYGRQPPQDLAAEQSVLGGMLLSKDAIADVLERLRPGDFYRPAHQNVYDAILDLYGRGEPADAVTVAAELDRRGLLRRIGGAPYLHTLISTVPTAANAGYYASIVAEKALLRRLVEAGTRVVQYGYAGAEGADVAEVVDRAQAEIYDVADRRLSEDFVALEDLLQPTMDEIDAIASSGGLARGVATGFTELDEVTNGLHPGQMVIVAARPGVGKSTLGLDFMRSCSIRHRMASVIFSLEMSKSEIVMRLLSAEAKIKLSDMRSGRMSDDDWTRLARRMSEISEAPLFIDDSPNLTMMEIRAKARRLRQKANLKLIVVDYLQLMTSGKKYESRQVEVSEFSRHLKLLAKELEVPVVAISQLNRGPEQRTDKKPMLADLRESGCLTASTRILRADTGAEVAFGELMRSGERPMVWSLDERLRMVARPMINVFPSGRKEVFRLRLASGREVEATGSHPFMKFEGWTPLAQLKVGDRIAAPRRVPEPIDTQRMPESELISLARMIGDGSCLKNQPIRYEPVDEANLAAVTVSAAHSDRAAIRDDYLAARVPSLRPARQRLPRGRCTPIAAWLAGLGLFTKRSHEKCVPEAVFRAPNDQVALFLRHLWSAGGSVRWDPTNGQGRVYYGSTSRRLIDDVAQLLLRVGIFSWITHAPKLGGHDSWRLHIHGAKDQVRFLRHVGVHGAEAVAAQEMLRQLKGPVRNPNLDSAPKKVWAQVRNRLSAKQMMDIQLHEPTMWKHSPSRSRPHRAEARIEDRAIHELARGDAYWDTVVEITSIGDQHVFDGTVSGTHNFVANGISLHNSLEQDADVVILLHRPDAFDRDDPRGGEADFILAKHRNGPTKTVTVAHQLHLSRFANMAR
# Protein RecA = target: T5, Protein RecA (Mycobacterium tuberculosis, UniProt P9WHJ3); assay: Fluorescence Cell-Free Homogeneous Dose Retest to Identify Inhibitors of RecA-Intein Splicing Activity. [Related pubchem assays (depositor defined):AID2097, AID2223, AID489010, AID492950]; type: functional
# T5 sequence (P9WHJ3 whole entry): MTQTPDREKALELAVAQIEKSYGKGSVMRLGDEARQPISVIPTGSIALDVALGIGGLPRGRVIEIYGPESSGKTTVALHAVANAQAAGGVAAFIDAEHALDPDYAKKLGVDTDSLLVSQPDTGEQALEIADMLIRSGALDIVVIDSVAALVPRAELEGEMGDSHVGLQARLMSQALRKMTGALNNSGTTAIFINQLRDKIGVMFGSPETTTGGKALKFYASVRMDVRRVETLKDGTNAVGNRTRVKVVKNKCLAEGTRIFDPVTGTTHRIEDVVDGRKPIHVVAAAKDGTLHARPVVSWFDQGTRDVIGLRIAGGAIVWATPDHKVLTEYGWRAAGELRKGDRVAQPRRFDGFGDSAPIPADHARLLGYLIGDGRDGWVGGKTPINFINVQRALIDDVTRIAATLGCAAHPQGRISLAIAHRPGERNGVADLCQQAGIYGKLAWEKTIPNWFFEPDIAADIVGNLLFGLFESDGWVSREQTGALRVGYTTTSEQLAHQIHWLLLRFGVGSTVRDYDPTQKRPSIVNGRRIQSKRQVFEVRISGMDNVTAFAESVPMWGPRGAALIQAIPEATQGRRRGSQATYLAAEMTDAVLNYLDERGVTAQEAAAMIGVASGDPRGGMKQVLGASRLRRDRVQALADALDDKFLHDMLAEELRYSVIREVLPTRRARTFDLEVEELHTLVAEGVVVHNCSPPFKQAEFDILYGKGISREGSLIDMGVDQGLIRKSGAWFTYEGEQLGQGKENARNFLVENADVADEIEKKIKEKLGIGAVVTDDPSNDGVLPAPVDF
# [16] = target: T6, High affinity choline transporter 1 (Homo sapiens, UniProt Q9GZV3); assay: human choline transporter blockers, potency – cell-based, 5-point CRC, membrane potential dye, dose response (AID 504840); type: functional
# T6 sequence (Q9GZV3 whole entry): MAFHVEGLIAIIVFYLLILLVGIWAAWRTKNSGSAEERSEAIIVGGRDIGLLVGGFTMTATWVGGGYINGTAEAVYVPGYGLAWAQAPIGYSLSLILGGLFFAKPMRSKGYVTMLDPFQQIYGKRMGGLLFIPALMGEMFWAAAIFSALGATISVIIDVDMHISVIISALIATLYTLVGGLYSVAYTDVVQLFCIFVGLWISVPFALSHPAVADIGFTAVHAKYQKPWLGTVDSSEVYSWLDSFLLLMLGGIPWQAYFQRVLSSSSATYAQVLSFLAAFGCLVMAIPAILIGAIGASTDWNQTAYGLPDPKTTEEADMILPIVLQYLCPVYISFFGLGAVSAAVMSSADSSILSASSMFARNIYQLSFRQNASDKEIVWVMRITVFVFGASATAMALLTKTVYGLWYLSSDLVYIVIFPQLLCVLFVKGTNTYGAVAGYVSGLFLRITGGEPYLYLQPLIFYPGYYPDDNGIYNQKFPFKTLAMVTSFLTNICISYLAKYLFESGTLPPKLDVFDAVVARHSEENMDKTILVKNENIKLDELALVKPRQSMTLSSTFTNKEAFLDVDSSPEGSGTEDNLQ
# Beta-galactosidase, sequence (Q8VNN2 whole entry): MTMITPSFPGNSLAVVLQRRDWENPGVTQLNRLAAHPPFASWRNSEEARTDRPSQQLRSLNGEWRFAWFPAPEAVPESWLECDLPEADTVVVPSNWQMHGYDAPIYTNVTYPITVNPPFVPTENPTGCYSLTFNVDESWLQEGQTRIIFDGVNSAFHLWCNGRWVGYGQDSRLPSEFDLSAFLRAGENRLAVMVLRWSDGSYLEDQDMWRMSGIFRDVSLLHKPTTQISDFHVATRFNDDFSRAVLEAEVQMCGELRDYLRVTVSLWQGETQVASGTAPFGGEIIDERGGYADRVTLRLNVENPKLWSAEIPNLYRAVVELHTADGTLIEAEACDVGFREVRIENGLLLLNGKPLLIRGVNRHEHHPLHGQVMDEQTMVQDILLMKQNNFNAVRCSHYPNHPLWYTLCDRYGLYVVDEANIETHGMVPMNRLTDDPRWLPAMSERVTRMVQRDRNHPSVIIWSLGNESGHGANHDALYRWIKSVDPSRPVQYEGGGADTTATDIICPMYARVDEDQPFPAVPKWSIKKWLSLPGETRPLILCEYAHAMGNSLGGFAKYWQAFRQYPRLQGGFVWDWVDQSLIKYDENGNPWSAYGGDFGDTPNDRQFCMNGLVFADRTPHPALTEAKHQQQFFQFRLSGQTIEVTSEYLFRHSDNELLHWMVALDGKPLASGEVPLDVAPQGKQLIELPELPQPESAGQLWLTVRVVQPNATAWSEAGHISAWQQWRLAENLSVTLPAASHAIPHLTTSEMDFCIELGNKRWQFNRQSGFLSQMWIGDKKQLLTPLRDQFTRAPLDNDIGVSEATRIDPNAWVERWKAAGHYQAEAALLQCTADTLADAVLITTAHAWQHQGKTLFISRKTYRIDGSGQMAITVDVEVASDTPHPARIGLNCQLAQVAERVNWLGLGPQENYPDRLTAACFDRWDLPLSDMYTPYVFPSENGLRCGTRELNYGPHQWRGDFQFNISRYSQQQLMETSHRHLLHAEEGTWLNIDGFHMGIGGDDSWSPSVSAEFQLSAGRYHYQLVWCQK
smiles,measurement,setting,value
O=C(Cc1ccc(F)cc1)OCC(=O)c1cc2ccccc2o1,EC50,Beta-galactosidase,> 40 µM (inactive)
same,IC50,[1],23.9 µM (not active)
CS(=O)(=O)N1CCc2cc(C(=O)Nc3ccccc3Cl)ccc21,IC50,HEK293 [2],> 67.5 µM (inactive)
same,IC50,[3],> 67.5 µM (inactive)
CN1CCN(C(=S)c2ccc(-c3cccc([N+](=O)[O-])c3)o2)CC1,EC50,[4],0.141 µM (active)
same,EC50,[5],0.117 µM (active)
same,EC50,H4,2.4 µM (active)
same,IC50,HEK293 [2],> 67.6 µM (inactive)
same,IC50,[3],> 67.6 µM (inactive)
COc1ccc(C(=O)NC2CCCc3c2cnn3-c2cccc(C)c2C)c(OC)n1 (stereo unspecified),AC50,HEK293 [6],17.5 µM (active)
same,IC50,Vero [7],3.8 µM (active)
same,CC50,Vero [8],> 25 µM (active)
same,AC50,[9],1.96 µM (active)
same,AC50,[10],> 70 µM (inactive)
same,AC50,[11],3.27 µM (active)
O=C(CCl)N1CCCC1c1ccc2c(c1)OCCO2 (stereo unspecified),EC50,[4],29.6 µM (active)
same,EC50,[5],14 µM (active)
same,EC50,H4,> 120 µM (not active)
same,EC50,[12],1.14 µM (active)
same,CC50,[13],11.6 µM (active)
same,IC50,Jurkat,1.39 µM (active)
same,IC50,[14],> 80 µM (inactive)
same,AC50,[15],12.2 µM (active)
same,EC50,Protein RecA,> 380 µM (inconclusive)
Nc1c(-c2ccc(Cl)cc2)cnc2c(-c3ccccc3)cnn12,IC50,HEK293 [2],> 67.5 µM (inactive)
same,IC50,[3],> 67.5 µM (inactive)
O=C1Nc2ccccc2C1=Nc1ccc(F)cc1,EC50,Beta-galactosidase,> 40 µM (inactive)
same,IC50,[1],24.4 µM (not active)
Cc1ccnc(SCc2cc(=O)c(OC(=O)c3ccco3)co2)n1,IC50,[16],15.8 µM (active)
CCCCCn1c(=O)[nH]c2cc(C(=O)NCCCN3CCCCC3C)ccc2c1=O (stereo unspecified),IC50,[16],14.5 µM (active)
CCc1ccc(-c2nc(C[S+]([O-])CC(=O)NCc3ccco3)c(C)o2)cc1 (stereo unspecified),IC50,Jurkat,44.1 µM (inactive)
same,IC50,[14],> 80 µM (inactive)
c1ccc2c(c1)ccc1[nH]c3c(c12)CCCC3,IC50,Vero [7],3.39 µM (active)
same,CC50,Vero [8],> 25 µM (active)
O=C(C=Cc1ccccc1)c1cnc2ccccc2c1O,IC50,Vero [7],> 25 µM (active)
same,CC50,Vero [8],11 µM (active)
